# Data published in PubChem BioAssay AID2060604 (Molecular Pharmacology Branch, DTP, NCI, 2025).
# pIC50: −log10 of the molar value.
# Test system: 379773-124-R-J2-PDC complex spheroids, viability % test/control
# Assay: Anticancer human tumor 379773-124-R-J2-PDC patient-derived endometrial carcinoma cell line growth inhibition [CLK]
# Settings: for pIC50: curve of first compound; for viability, T/C: stronger effect = lower value
# Summary of the method: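 Patient-derived tumor cells grown as complex spheroids with HUVEC endothelial cells and mesenchymal stem cells, treated with drug combinations. Concentrations descend in half-log steps from near clinical Cmax, or from 10 microM if Cmax unknown.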
# [1] = second compound 0.0316 µM, first compound 0.0316 µM
# [2] = second compound 0.0316 µM, first compound 0.1 µM
# [3] = second compound 0.0316 µM, first compound 0.316 µM
# [4] = second compound 0.0316 µM, first compound 1 µM
# [5] = second compound 0.0316 µM, first compound 3.16 µM
# [6] = second compound 0.0316 µM, first compound 10 µM
# [7] = second compound 0.1 µM, first compound 0.0316 µM
# [8] = second compound 0.1 µM, first compound 0.1 µM
# [9] = second compound 0.1 µM, first compound 0.316 µM
# [10] = second compound 0.1 µM, first compound 1 µM
# [11] = second compound 0.1 µM, first compound 3.16 µM
# [12] = second compound 0.1 µM, first compound 10 µM
# [13] = second compound 0.316 µM, first compound 0.0316 µM
# [14] = second compound 0.316 µM, first compound 0.1 µM
# [15] = second compound 0.316 µM, first compound 0.316 µM
# [16] = second compound 0.316 µM, first compound 1 µM
# [17] = second compound 0.316 µM, first compound 3.16 µM
# [18] = second compound 0.316 µM, first compound 10 µM
# [19] = second compound 1 µM, first compound 0.0316 µM
# [20] = second compound 1 µM, first compound 0.1 µM
# [21] = second compound 1 µM, first compound 0.316 µM
# [22] = second compound 1 µM, first compound 1 µM
# [23] = second compound 1 µM, first compound 3.16 µM
# [24] = second compound 1 µM, first compound 10 µM
# [25] = second compound 3.16 µM, first compound 0.0316 µM
# [26] = second compound 3.16 µM, first compound 0.1 µM
# [27] = second compound 3.16 µM, first compound 0.316 µM
# [28] = second compound 3.16 µM, first compound 1 µM
# [29] = second compound 3.16 µM, first compound 3.16 µM
# [30] = second compound 3.16 µM, first compound 10 µM
# [31] = second compound 10 µM, first compound 0.0316 µM
# [32] = second compound 10 µM, first compound 0.1 µM
# [33] = second compound 10 µM, first compound 0.316 µM
# [34] = second compound 10 µM, first compound 1 µM
# [35] = second compound 10 µM, first compound 3.16 µM
# [36] = second compound 10 µM, first compound 10 µM
# 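Note: compound exposure lasted seven days before the viability readout.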
# 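Throughout, for viability, T/C: 100% = DMSO vehicle control wells.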
compound,measurement,setting,value
CC1(C)CCC(CN2CCN(c3ccc(C(=O)NS(=O)(=O)c4ccc(NCC5CCOCC5)c([N+](=O)[O-])c4)c(Oc4cnc5[nH]ccc5c4)c3)CC2)=C(c2ccc(Cl)cc2)C1 + CN1CCN(c2cc(C(=O)Nc3cc4cc(-c5cnn(C)c5)ccc4cn3)ccn2)CC1,pIC50,second compound 0.0316 µM,5.32
same,pIC50,second compound 0.1 µM,5.30
same,pIC50,second compound 0.316 µM,> 7.50
same,pIC50,second compound 1 µM,> 7.50
same,pIC50,second compound 3.16 µM,> 7.50
same,pIC50,second compound 10 µM,> 7.50
same,"viability, T/C",[1],99.5%
same,"viability, T/C",[2],88.1%
same,"viability, T/C",[3],86%
same,"viability, T/C",[4],108%
same,"viability, T/C",[5],74.1%
same,"viability, T/C",[6],6.08%
same,"viability, T/C",[7],84.1%
same,"viability, T/C",[8],81.3%
same,"viability, T/C",[9],88.3%
same,"viability, T/C",[10],87.8%
same,"viability, T/C",[11],83.1%
same,"viability, T/C",[12],1.06%
same,"viability, T/C",[13],26.2%
same,"viability, T/C",[14],26.1%
same,"viability, T/C",[15],26.7%
same,"viability, T/C",[16],28.9%
same,"viability, T/C",[17],24.3%
same,"viability, T/C",[18],1.02%
same,"viability, T/C",[19],0.19%
same,"viability, T/C",[20],1.14%
same,"viability, T/C",[21],0.4%
same,"viability, T/C",[22],0.16%
same,"viability, T/C",[23],0.08%
same,"viability, T/C",[24],0.07%
same,"viability, T/C",[25],0.86%
same,"viability, T/C",[26],0.92%
same,"viability, T/C",[27],2.05%
same,"viability, T/C",[28],0.09%
same,"viability, T/C",[29],0.64%
same,"viability, T/C",[30],0.09%
same,"viability, T/C",[31],0.1%
same,"viability, T/C",[32],0.14%
same,"viability, T/C",[33],0.15%
same,"viability, T/C",[34],0.61%
same,"viability, T/C",[35],3.58%
same,"viability, T/C",[36],0.16%
CC1COCCN1c1cc(C2(S(C)(=N)=O)CC2)nc(-c2ccnc3[nH]ccc23)n1 (centres undefined) + CN1CCN(c2cc(C(=O)Nc3cc4cc(-c5cnn(C)c5)ccc4cn3)ccn2)CC1,pIC50,second compound 0.0316 µM,5.60
same,pIC50,second compound 0.1 µM,5.55
same,pIC50,second compound 0.316 µM,> 7.50
same,pIC50,second compound 1 µM,> 7.50
same,pIC50,second compound 3.16 µM,> 7.50
same,pIC50,second compound 10 µM,> 7.50
same,"viability, T/C",[1],98.2%
same,"viability, T/C",[2],95.1%
same,"viability, T/C",[3],80.2%
same,"viability, T/C",[4],74%
same,"viability, T/C",[5],42.8%
same,"viability, T/C",[6],17.2%
same,"viability, T/C",[7],84.2%
same,"viability, T/C",[8],75.7%
same,"viability, T/C",[9],77.5%
same,"viability, T/C",[10],64.9%
same,"viability, T/C",[11],49.3%
same,"viability, T/C",[12],12.5%
same,"viability, T/C",[13],21.9%
same,"viability, T/C",[14],26.2%
same,"viability, T/C",[15],20.1%
same,"viability, T/C",[16],15.6%
same,"viability, T/C",[17],10.6%
same,"viability, T/C",[18],3.29%
same,"viability, T/C",[19],0.11%
same,"viability, T/C",[20],0.2%
same,"viability, T/C",[21],0.96%
same,"viability, T/C",[22],2.48%
same,"viability, T/C",[23],0.1%
same,"viability, T/C",[24],0.06%
same,"viability, T/C",[25],1.57%
same,"viability, T/C",[26],1.16%
same,"viability, T/C",[27],0.14%
same,"viability, T/C",[28],0.1%
same,"viability, T/C",[29],0.12%
same,"viability, T/C",[30],0.1%
same,"viability, T/C",[31],0.14%
same,"viability, T/C",[32],0.36%
same,"viability, T/C",[33],1.74%
same,"viability, T/C",[34],0.18%
same,"viability, T/C",[35],3%
same,"viability, T/C",[36],0.19%
